Results published in US10398786B2, “Therapeutic gene cocktail for heart regeneration” (Academia Sinica, priority 2015, dated 2019).

Tested on: adult CMs of OSKM transgenic mice
Test: doxycycline injection into OSKM transgenic mice, adult CMs isolated after two days
Type: in vivo
Conditions: two days after doxycycline treatment
Experimental: Reverse transcription were completed following the protocol of SuperScript III Reverse-Transcriptase kit (Life Technology). SYBR Green Real-Time PCR master mixes were used to quantify each gene expression, and GAPDH were performed for normalization.
Adult ventricular CMs were isolated from male mice on a Langendorff apparatus. The hearts were removed from the anaesthetized mice after heparinization for 10 mins, and then were cannulated for retrograde perfusion with Ca^2+-free Tyrode solution (NaCl 120.4 mmol/L, KCl 14.7 mmol/L, KH2PO4 0.6 mmol/L, Na2HPO4 0.6 mmol/L, MgSO4 1.2 mmol/L, HEPES 1.2 mmol/L, NaHCO3 4.6 mmol/L, Taurine 30 mmol/L, BDM 10 mmol/L, Glucose 5.5 mmol/L).
After 3-minutes of perfusion, the solution mixed with Ca^2+-free Tyrode solution supplemented with collagenase B (0.4 mg/g body weight, Roche), collagenase D (0.3 mg/g body weight, Roche) and protease type XIV (0.05 mg/g body weight, Sigma-Aldrich) were used to digest the hearts. After digestion, the ventricles were cut from the cannula and teased into small pieces in the digestion solution neutralized by the Ca^2+-free Tyrode solution containing 10% FBS. Adult CMs were dissociated from the digested tissues by gentle pipetting and collected after removing the un-digested tissues by filtering through a nylon mesh of 250 μm pore size. […]

## C[C@H]1c2cccc(O)c2C(=O)C2=C(O)[C@]3(O)C(=O)C(C(N)=O)=C(O)[C@@H](N(C)C)[C@@H]3[C@@H](O)[C@@H]21 [doxycycline]
  H3P+ population of adult CMs relative to control: 2 ×
